Assay results taken from publication PMC6017873 (Molecules : A Journal of Synthetic Chemistry and Natural …, 2018).

Test system: SK-MEL-28 cells
Experiment: Acetylation of sirtuin targets by Western blot, SK-MEL-28
Format: cell-based, human
Conditions: SK-MEL-28, 5 and 50 µM, 8 h
Method: Figure 5 Effect of eurochevalierine on the acetylation status of sirtuin targets. SK-MEL-28, U-373, and A-549 cells were treated with 5 and 50 µM eurochevalierine (EU) for 8 h. Acetylation of histone H4 (AcH4), histone H3 at lysine 56 (AcH3K56), and α-tubulin (Ac α-tubulin) was analyzed via Western blot. β-actin and histone H1 were used as loading controls for the analysis of total and acid extracts, respectively. SAHA (S, 1 µM) was used as a reference HDAC inhibitor. Blots are representative of three independent experiments.
Total proteins were extracted using the MPER® reagent (Thermo-scientific, Erembodegem-Aalst, Belgium) supplemented by 1× protease inhibitor cocktail (Complete EDTA-free, Roche, Prophac, Luxembourg, Luxembourg) according to manufacturer’s instructions. Histones were extracted as previously described. Western blots were carried out as previously reported.
Corresponding secondary antibodies were from Santa Cruz Biotechnology.

Compound: C=C(C)[C@@H]1CC[C@@H](C)[C@@]2(O)[C@@H]1C=C(C)[C@@H](OC(C)=O)[C@@H]2OC(=O)[C@H](CC(=O)c1ccccc1NC)NC=O [Eurochevalierine, eurochevalierine]
- acetylation of sirtuin targets (AcH4, AcH3K56, Ac α-tubulin): robust and dose-dependent increase
